Assay results from US20250367209A1 (SOUTHERN RESEARCH INSTITUTE, priority 2022, published 2025).

target: Tau-FynSH3 interaction (Homo sapiens (Human), UniProt P10636); test: Tau-FynSH3 AlphaScreen; type: binding; details: not given
Description: Human Fyn-SH3 domain with GST-tag at the N-terminus and a Strep-tag II ([…]) at the C-terminus (GST-Fyn-SH3-Strep) was cloned into pPR-IBA1 vector (IBA Lifesciences) (Cochran, et al. (2014) J. Biomol. Screen. 19, 1338-1349). Codon-optimized human 4R2N Tau for E. coli expression with a Strep-tag II at the C-terminus (His-Tau-Strep) was cloned into pET-28a(+) vector (Novagen). The constructs were transformed into E. coli BL-21(DE3) competent cells (Novagen). For GST-Fyn-SH3-Strep purification, a single colony was inoculated in Luria-Bertani (LB) broth at 37° C. overnight. 10 mL cell culture was added into 500 mL LB medium and cultured at 37° C. 0.5 mM Isopropyl β-D-1-thiogalactopyranoside (IPTG) was added into the culture when OD600 reached 0.7. Cells were further cultured at 25° C. for 4 hours and harvested. Cell pellet was resuspended in lysis buffer (20 mM Tris pH 7.9, 300 mM NaCl, 1 mM TCEP) with 1 tablet of EDTA-free protease inhibitors (ThermoFisher) and 1 mg/ml lysozyme. Cells were disrupted by sonication and debris was removed by centrifugation at 9500 rpm for 1 hour. Supernatant was loaded onto a glutathione-sepharose column (Cytiva). The column was washed in lysis buffer and protein eluted in lysis buffer containing 25 mM reduced glutathione. For His-Tau-Strep protein purification, cells were inoculated in LB broth medium and cultured at 37° C. overnight. A 10 mL overnight culture was added to 500 mL of auto-induction medium (Studier, F. W. (2005) Protein Expr Purif 41, 207-34) and cells were cultured at 37° C. for about 5 hours. The temperature was lowered to 18° C., and cells were cultured overnight. Cells were harvested and resuspended in lysis buffer with 20 mM imidazole, protease inhibitors, and lysozyme. Cells were disrupted by sonication and cell pellets were spun down at 9500 rpm for 1 hour. Supernatant was loaded onto Ni-NTA column (Cytiva) and the column was washed in lysis buffer with 20 mM imidazole. His-Tau-Strep protein was eluted in lysis buffer containing 400 mM imidazole. Both eluted GST-Fyn-SH3-Strep and His-Tau-Strep protein solutions were passed through G-25 desalting column (Cytiva) with lysis buffer and loaded onto high capacity Strep-Tactin column (IBA Lifesciences). The columns were washed in Buffer W (IBA Life sciences) and proteins were eluted in Buffer E (IBA life sciences). The eluted proteins were passed through G-25 desalting column again. Both GST-Fyn-Strep and His-Tau-Strep proteins were concentrated and diluted 1:1 in ethylene glycol as a cryoprotectant for storage at −80° C.
AlphaScreen was conducted with 10 µg/mL of glutathione donor beads (PerkinElmer, Waltham, MA) and nickel chelate acceptor beads (PerkinElmer) in 10 mM Bis-Tris (pH 7.0), 1 mM TCEP, 0.02% casein, and 0.1% Tween-20. Compounds were plated first followed by addition of one the proteins at 600 nM and incubation for 30 min. The second protein was added and incubated for 30 mn, then the beads were added simultaneously and the final mixture was incubated for 2 hours. Experiments were conducted in 384-well plates (6007290; PerkinElmer) and results were read on a PHERAstar plate reader (BMG Labtech, Cary, NC).
˜50,000 compounds from the Enamine and Southern Research libraries were screened to identify Tau-FynSH3 interaction inhibitors using an AlphaScreen assay (Cochran, et al. (2014) J. Biomol. Screen. 19, 1338-1349). Compounds that were >3 standard deviations above mean inhibition were selected, yielding 1,852 hits (FIG. 1A). […]. These 39 compounds were tested in a live-cell BRET assay to measure Tau-Fyn interaction in cells. […]. Screen. 19, 1338-1349).

Tau-FynSH3 interaction, sequence (P10636 other isoform, or with tags, fused parts or gaps): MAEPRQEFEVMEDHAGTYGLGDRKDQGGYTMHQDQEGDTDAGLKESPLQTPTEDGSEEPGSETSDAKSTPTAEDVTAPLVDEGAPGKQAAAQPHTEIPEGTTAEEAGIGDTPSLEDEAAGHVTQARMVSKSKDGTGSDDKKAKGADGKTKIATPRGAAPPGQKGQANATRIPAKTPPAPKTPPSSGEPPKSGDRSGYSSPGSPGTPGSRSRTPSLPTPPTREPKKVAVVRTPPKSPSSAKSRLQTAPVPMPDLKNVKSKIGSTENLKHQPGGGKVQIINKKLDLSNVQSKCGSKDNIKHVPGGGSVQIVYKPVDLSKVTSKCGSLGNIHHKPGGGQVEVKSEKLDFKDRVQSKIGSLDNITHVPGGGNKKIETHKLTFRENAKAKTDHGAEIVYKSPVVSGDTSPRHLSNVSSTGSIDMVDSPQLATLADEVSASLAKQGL

Row | AlphaScreen activity (in words) | SMILES
1 | lost activity | O=C(CN1CCSc2ccccc21)Nc1ncc(-c2ccccn2)o1 [compound 68]

same assay, conditions: Table 2; Tau-FynSH3 inhibitory activity in the AlphaScreen; read-out: IC50

Row | IC50 | SMILES
2 | > 100000 nM | O=C(CCN1C(=O)COc2ccccc21)Nc1nnc(-c2ccccn2)[nH]1 [compound 43, 3-(3-Oxo-2,3-DIHYDRO-4H-BENZO[B][1,4]OXAZIN-4-YL)-N-(5-(PYRIDIN-2-YL)-4H-1,2,4-TRIAZOL-3-YL)PROPANAMIDE]
3 | > 100000 nM | O=C(CN1CCSc2ccccc21)Nc1ncc(-c2ccccn2)o1 [compound 68]
4 | > 100000 nM | O=C(CCN1C(=O)CCc2ccccc21)Nc1nnc(-c2ccccn2)[nH]1 [compound no. 3, 3-(2-Oxo-3,4-DIHYDROQUINOLIN-1(2H)-YL)-N-(5-(PYRIDIN-2-YL)-4H-1,2,4-TRIAZOL-3-YL)PROPANAMIDE]

Row | SMILES | IC50
5 | O=C(CN1C(=O)CCc2ccccc21)Nc1nnc(-c2ccccn2)[nH]1 [compound no. 2, 2-(2-OXO-3,4-DIHYDROQUINOLIN-1(2H)-YL)-N-(5-(PYRIDIN-2-YL)-4H-1,2,4-TRIAZOL-3-YL)ACETAMIDE] | 2720 nM

same assay, conditions: Table 3

Row | SMILES | Alpha screen IC50 (μM)
6 | O=C1COc2ccccc2N1Cc1nnc(-c2ccccn2)[nH]1 [compound 28, 4-((5-(PYRIDIN-2-YL)-4H-1,2,4-TRIAZOL-3-YL)METHYL)-2H-BENZO[B][1,4]OXAZIN-3(4H)-ONE] | Inactive
7 | O=C1CCc2ccccc2N1Cc1nnc(-c2ccccn2)[nH]1 [compound 29, 1-((5-(PYRIDIN-2-YL)-4H-1,2,4-TRIAZOL-3-YL)METHYL)-3,4-DIHYDROQUINOLIN-2(1H)-ONE] | Inactive
8 | O=C(CCN1C(=O)CSc2ccccc21)Nc1ccccc1C(F)(F)F [compound 36, 3-(3-OXO-2,3-DIHYDRO-4H-BENZO[B][1,4]THIAZIN-4-YL)-N-(2-(TRIFLUOROMETHYL)PHENYL) PROPANAMIDE] | Inactive
9 | O=C(CCN1C(=O)COc2ccccc21)Nc1nnc(-c2ccccn2)[nH]1 [compound 43, 3-(3-Oxo-2,3-DIHYDRO-4H-BENZO[B][1,4]OXAZIN-4-YL)-N-(5-(PYRIDIN-2-YL)-4H-1,2,4-TRIAZOL-3-YL)PROPANAMIDE] | Inactive

Continued, values first:

Row | Alpha screen IC50 (μM) | SMILES
10 | Inactive | O=C(CN1C(=O)CSc2ccccc21)Nc1nnc(-c2cccnc2)[nH]1 [compound 24, 2-(3-OXO-2,3-DIHYDRO-4H-BENZO[B][1,4]THIAZIN-4-YL)-N-(5-(PYRIDIN-3-YL)-4H-1,2,4-TRIAZOL-3-YL)ACETAMIDE]
11 | Inactive | O=C(CN1C(=O)CSc2ccccc21)Nc1nnc(-c2ccncc2)[nH]1 [compound 25, 2-(3-Oxo-2,3-DIHYDRO-4H-BENZO[B][1,4]THIAZIN-4-YL)-N-(5-(PYRIDIN-4-YL)-4H-1,2,4-TRIAZOL-3-YL)ACETAMIDE]
12 | Inactive | O=C(CCN1C(=O)CSc2ccccc21)Nc1ccc(-c2ccccn2)cc1 [compound 38, 3-(3-Oxo-2,3-DIHYDRO-4H-BENZO[B][1,4]THIAZIN-4-YL)-N-(4-(PYRIDIN-2-YL)PHENYL)PROPANAMIDE]
13 | Inactive | O=C(CCN1C(=O)CSc2ccccc21)Nc1ccc(-c2ccccc2)cc1 [compound 39, N-([1,1′-BIPHENYL]-4-YL)-3-(3-Oxo-2,3-DIHYDRO-4H-BENZO[B][1,4]THIAZIN-4-YL)PROPANAMIDE]
14 | Inactive | O=C(CCN1C(=O)CSc2ccccc21)Nc1nnn[nH]1 [compound 40, 3-(3-OXO-2,3-DIHYDRO-4H-BENZO[B][1,4]THIAZIN-4-YL)-N-(1H-TETRAZOL-5-YL)PROPANAMIDE]
15 | Inactive | O=C(CCN1C(=O)CSc2ccccc21)Nc1ccc(-c2ncc[nH]2)cc1 [compound 41, N-(4-(1H-IMIDAZOL-2-YL)PHENYL)-3-(3-Oxo-2,3-DIHYDRO-4H-BENZO[B][1,4]THIAZIN-4-YL)PROPANAMIDE]
16 | Inactive | O=C(CCN1C(=O)CSc2ccccc21)Nc1ccc(-c2cncnc2)cc1 [compound 42, 3-(3-OXO-2,3-DIHYDRO-4H-BENZO[B][1,4]THIAZIN-4-YL)-N-(4-(PYRIMIDIN-5-YL)PHENYL) PROPANAMIDE]
17 | Inactive | O=C(CN1C(=O)CSc2ccccc21)Nc1cccc(C(=O)N2CCOCC2)c1 [compound 44, N-(3-(MORPHOLINE-4-CARBONYL)PHENYL)-2-(3-OXO-2,3-DIHYDRO-4H-BENZO[B][1,4]THIAZIN-4-YL)ACETAMIDE]

same assay, conditions: Table 3; read-out: Alpha screen IC50

Row | SMILES | IC50
18 | O=C(CCN1C(=O)CSc2ccc(Cl)cc21)Nc1nnc(-c2ccccn2)[nH]1 [compound 10, 3-(6-CHLORO-3-OXO-2H-BENZO[B][1,4]THIAZIN-4(3H)-YL)-N-(5-(PYRIDIN-2-YL)-4H-1,2,4-TRIAZOL-3-YL)PROPANAMIDE] | 6780 nM
19 | O=C(CN1C(=O)CSc2cc(C(F)(F)F)ccc21)Nc1nnc(-c2ccccn2)[nH]1 [compound 17, 2-(3-OXO-7-(TRIFLUOROMETHYL)-2H-BENZO[B][1,4]THIAZIN-4(3H)-YL)-N-(5-(PYRIDIN-2-YL)-4H-1,2,4-TRIAZOL-3-YL)ACETAMIDE] | 5420 nM
20 | O=c1sc2ccccc2n1Cc1nnc(-c2ccccn2)[nH]1 [compound 30, 3-((5-(PYRIDIN-2-YL)-4H-1,2,4-TRIAZOL-3-YL)METHYL)BENZO[D]THIAZOL-2(3H)-ONE] | 10600 nM
21 | O=C(CN1C(=O)CCc2cc(Cl)ccc21)Nc1nnc(-c2ccccn2)[nH]1 [compound 48, 2-(6-CHLORO-2-OXO-3,4-DIHYDROQUINOLIN-1(2H)-YL)-N-(5-(PYRIDIN-2-YL)-4H-1,2,4-TRIAZOL-3-YL)ACETAMIDE] | 1200 nM
22 | COc1ccc2c(c1)N(CC(=O)Nc1nnc(-c3ccccn3)[nH]1)C(=O)CO2 [compound 49, 2-(6-METHOXY-3-OXO-2,3-DIHYDRO-4H-BENZO[B][1,4]OXAZIN-4-YL)-N-(5-(PYRIDIN-2-YL)-4H-1,2,4-TRIAZOL-3-YL)ACETAMIDE] | 1600 nM
23 | O=C(CN1C(=O)CCc2cc(F)ccc21)Nc1nnc(-c2ccccn2)[nH]1 [compound 51, 2-(6-FLUORO-2-OXO-3,4-DIHYDROQUINOLIN-1(2H)-YL)-N-(5-(PYRIDIN-2-YL)-4H-1,2,4-TRIAZOL-3-YL)ACETAMIDE] | 1600 nM

Continued, values first:

Row | IC50 | SMILES
24 | 3450 nM | O=C(CCN1C(=O)CSc2cc(C(F)(F)F)ccc21)Nc1nnc(-c2ccccn2)[nH]1 [compound 11, 3-(3-Oxo-7-(TRIFLUOROMETHYL)-2H-BENZO[B][1,4]THIAZIN-4(3H)-YL)-N-(5-(PYRIDIN-2-YL)-4H-1,2,4-TRIAZOL-3-YL)PROPANAMIDE]
25 | 2960 nM | O=C(CN1C(=O)COc2cc(F)ccc21)Nc1nnc(-c2ccccn2)[nH]1 [compound 46, 2-(7-FLUORO-3-OXO-2,3-DIHYDRO-4H-BENZO[B][1,4]OXAZIN-4-YL)-N-(5-(PYRIDIN-2-YL)-4H-1,2,4-TRIAZOL-3-YL)ACETAMIDE]
26 | 1600 nM | COc1ccc2c(c1)N(CC(=O)Nc1nnc(-c3ccccn3)[nH]1)C(=O)CC2 [compound 50, 2-(7-METHOXY-2-OXO-3,4-DIHYDROQUINOLIN-1(2H)-YL)-N-(5-(PYRIDIN-2-YL)-4H-1,2,4-TRIAZOL-3-YL)ACETAMIDE]
27 | 1600 nM | O=C(CN1C(=O)COc2cc(Cl)ccc21)Nc1nnc(-c2ccccn2)[nH]1 [compound 52, 2-(7-CHLORO-3-OXO-2,3-DIHYDRO-4H-BENZO[B][1,4]OXAZIN-4-YL)-N-(5-(PYRIDIN-2-YL)-4H-1,2,4-TRIAZOL-3-YL)ACETAMIDE]
28 | 1600 nM | Cc1ccc2c(c1)OCC(=O)N2CC(=O)Nc1nnc(-c2ccccn2)[nH]1 [compound 53, 2-(7-METHYL-3-OXO-2,3-DIHYDRO-4H-BENZO[B][1,4]OXAZIN-4-YL)-N-(5-(PYRIDIN-2-YL)-4H-1,2,4-TRIAZOL-3-YL)ACETAMIDE]
29 | 1400 nM | Cc1ccc2c(c1)CCC(=O)N2CC(=O)Nc1nnc(-c2ccccn2)[nH]1 [compound 54, 2-(6-METHYL-2-OXO-3,4-DIHYDROQUINOLIN-1(2H)-YL)-N-(5-(PYRIDIN-2-YL)-4H-1,2,4-TRIAZOL-3-YL)ACETAMIDE]

same assay, conditions: compared to compound no. 20

Row | SMILES | lower / reduced AlphaScreen activity
30 | O=C(CN1CCCCC1)Nc1nnc(-c2ccccn2)[nH]1 [compound 65] | 8-10 fold
31 | O=C(CN1CCOCC1)Nc1nnc(-c2ccccn2)[nH]1 [compound 66] | 8-10 fold
